19 compounds from article PMC6522510 (Nature Communications, 2019) can be followed below.

Holding throughout (design): species or system AML cell lines (8); Primary HTS, single concentration about 10 uM, Cell Titer Glo viability; log10 luminescence, per cent inhibition relative to cycloheximide control
What all share (conditions): 72 h, relative to cycloheximide control, log10 luminescence; inhibitor
(In general: In ATP-based viability assays light output follows the ATP content of the culture.)

Assay [1] concerns CHRF288-11.
Assay [2] deals with CMK.
For assay [3], the system named is CMS.
The subject of assay [4] is M07e.
In assay [5] the test system is ML-2.
The test system of assay [6] is MOLM-13.
Assay [7] concerns MV4-11.
Assay [8] has as its system U937.

As to `CC(C)Nc1ncc2cc(Oc3ccc(F)cc3F)c(=O)n(C)c2n1` [SJ000581145-1], the CHRF288-11 %inh in assay [1] is given as -0.5311%. Also, the CMK %inh in assay [2] came to 7.64%. In assay [3], the CMS %inh is given as 3.456%. Further, the M07e %inh in assay [4] is on record as 6.769%. Also, in assay [5], the ML-2 %inh is on record as 0.005285%. This compound also gave an MOLM-13 %inh in assay [6] of 2.517%. In assay [7], this compound showed an MV4-11 %inh of 3.959%. Also, the U937 %inh in assay [8] is 2.438%.

As for `COc1cccc(C2=C(c3cn(C)c4ccc(Cl)cc34)C(=O)NC2=O)c1` [SJ000581146-1], in assay [1], the CHRF288-11 %inh was -4.42%. Further, in assay [2], the CMK %inh is -1.255%. Further, the CMS %inh in assay [3] is recorded as 4.874%. The M07e %inh in assay [4] is 8.183%. In addition, the ML-2 %inh in assay [5] is on record as -1.297%. The compound also displayed an MOLM-13 %inh in assay [6] of 1.622%. In addition, in assay [7], the MV4-11 %inh came out at 2.685%. In addition, in assay [8], the U937 %inh stood at 1.209%.

Turning to `O=C1NC(=NCCc2ccccn2)S/C1=C\c1ccc2ncccc2c1` [SJ000581148-1], the CHRF288-11 %inh in assay [1] is on record as 5.232%. Also, in assay [2], the CMK %inh was determined as 25.57%. Moreover, the CMS %inh in assay [3] turned out to be 10.48%. In addition, in assay [4], the M07e %inh came to 10.8%. Moreover, in assay [5], the ML-2 %inh is given as 2.217%. In assay [6], this compound showed an MOLM-13 %inh of 58.53%. The same compound displayed an MV4-11 %inh in assay [7] of 45.12%. In addition, the U937 %inh in assay [8] amounted to 2.939%.

As to `COc1cccc(C2=C(c3cn(C)c4cc(F)ccc34)C(=O)NC2=O)c1` [SJ000581149-1], the CHRF288-11 %inh in assay [1] came out at 1.293%. In assay [2], the CMK %inh is -0.7568%. For the same compound, the CMS %inh in assay [3] is 6.064%. For the same compound, the M07e %inh in assay [4] was found to be 3.649%. Further, the ML-2 %inh in assay [5] was -0.5942%. In assay [6], this compound had an MOLM-13 %inh of 1.739%. In assay [7], this compound returned an MV4-11 %inh of 0.4897%. Further, in assay [8], the U937 %inh is on record as 0.6707%.

Take `Nc1c(C(=O)c2cccc(C(O)(CO)CO)c2)cnn1-c1ccc(F)cc1` [SJ000581150-1]: the CHRF288-11 %inh in assay [1] is -1.927%. In assay [2], the CMK %inh is -0.6841%. Further, the CMS %inh in assay [3] was 0.8259%. Also, in assay [4], the M07e %inh stood at 0.2609%. For the same compound, the ML-2 %inh in assay [5] is -0.9818%. This compound also yielded an MOLM-13 %inh in assay [6] of 1.373%. Moreover, the MV4-11 %inh in assay [7] is 2.176%. Besides, the U937 %inh in assay [8] is on record as -0.03378%.

Regarding `CCn1c(=O)c(Oc2ccc(F)cc2F)cc2cnc(NC3CCOCC3)nc21` [SJ000581151-1], in assay [1], the CHRF288-11 %inh is reported as -1.135%. Moreover, the CMK %inh in assay [2] was 8.128%. The CMS %inh in assay [3] is listed as -2.221%. The M07e %inh in assay [4] is recorded as 11.45%. The ML-2 %inh in assay [5] is -1.057%. In assay [6], the MOLM-13 %inh is listed as 2.299%. In assay [7], this compound returned an MV4-11 %inh of 2.556%. The U937 %inh in assay [8] was found to be 0.6844%.

Turning to `Cc1ccc(C)c(C2=C(c3cn(C)c4ccccc34)C(=O)NC2=O)c1` [SJ000581152-1], the CHRF288-11 %inh in assay [1] was 30.38%. Besides, the CMK %inh in assay [2] was 4.497%. Further, in assay [3], the CMS %inh is reported as -1.704%. In addition, the M07e %inh in assay [4] was -1.997%. Moreover, the ML-2 %inh in assay [5] is on record as 0.7091%. In assay [6], the MOLM-13 %inh was found to be 2.3%. This compound returned an MV4-11 %inh in assay [7] of 2.862%. The U937 %inh in assay [8] was 4.715%.

For the compound `O=C1NC(=NCc2ccccc2Br)S/C1=C\c1ccc2ncccc2c1` [SJ000581153-1], in assay [1], the CHRF288-11 %inh was found to be 2.479%. In assay [2], the CMK %inh is given as 1.742%. Further, the CMS %inh in assay [3] is 1.226%. In addition, the M07e %inh in assay [4] turned out to be 7.782%. In assay [5], the ML-2 %inh was 3.418%. In addition, the MOLM-13 %inh in assay [6] stood at 2.882%. The compound further gave an MV4-11 %inh in assay [7] of 3.118%. For the same compound, the U937 %inh in assay [8] was 5.903%.

For `Cn1cc(C2=C(c3cn(C)c4cc(N)ccc34)C(=O)NC2=O)c2ccccc21` [SJ000581154-1], in assay [1], the CHRF288-11 %inh is recorded as 40.91%. In addition, in assay [2], the CMK %inh is reported as 105.6%. Moreover, the CMS %inh in assay [3] came out at 49.07%. In addition, the M07e %inh in assay [4] is recorded as 38.42%. Also, in assay [5], the ML-2 %inh is 25.1%. This compound registered an MOLM-13 %inh in assay [6] of 77.98%. Besides, in assay [7], the MV4-11 %inh is reported as 66.53%. Moreover, the U937 %inh in assay [8] turned out to be 39.79%.

In the case of `CCc1c(C)nc2sc3c(N)ncnc3c2c1C` [SJ000581155-1], the CHRF288-11 %inh in assay [1] worked out at 5.014%. Further, in assay [2], the CMK %inh is reported as 26.14%. Also, the CMS %inh in assay [3] is given as 6.427%. The M07e %inh in assay [4] came to 3.066%. The ML-2 %inh in assay [5] was found to be 1.162%. This compound also displayed an MOLM-13 %inh in assay [6] of 58.52%. The MV4-11 %inh in assay [7] stood at 0.965%. Besides, the U937 %inh in assay [8] was found to be 2.164%.

In the case of `Nc1c(C(=O)c2cccc(-c3ccc[n+]([O-])c3)c2)cnn1-c1ccc(F)cc1F` [SJ000581156-1], in assay [1], the CHRF288-11 %inh is 0.7431%. Besides, the CMK %inh in assay [2] was determined as 6.727%. Further, the CMS %inh in assay [3] is reported as -0.9836%. In addition, the M07e %inh in assay [4] is on record as 5.956%. In addition, the ML-2 %inh in assay [5] was 2.597%. The compound further came in with an MOLM-13 %inh in assay [6] of 3.379%. The compound further yielded an MV4-11 %inh in assay [7] of 2.306%. In assay [8], the U937 %inh is reported as 3.963%.

For the compound `CC(CO)Nc1cc(-c2[nH]c3cccnc3c2-c2ccc(F)cc2)ccn1` (centres unmarked) [SJ000581157-1], the CHRF288-11 %inh in assay [1] is reported as 7.035%. Further, the CMK %inh in assay [2] is 13.38%. The CMS %inh in assay [3] was found to be 7.57%. The M07e %inh in assay [4] is 3.935%. Besides, the ML-2 %inh in assay [5] is reported as 3.05%. This compound also returned an MOLM-13 %inh in assay [6] of 1.967%. Further, the MV4-11 %inh in assay [7] turned out to be 5.71%. Further, the U937 %inh in assay [8] worked out at 3.658%.

In the case of `COc1cc[nH]c1/C=C1\C(=O)Nc2ccc(F)c(C#C[C@@H](O)[C@@H](N)[C@@H](C)O)c21` [SJ000581159-1], the CHRF288-11 %inh in assay [1] stood at 61.95%. Moreover, the CMK %inh in assay [2] was determined as 112.6%. The CMS %inh in assay [3] turned out to be 97.96%. Moreover, the M07e %inh in assay [4] stood at 87.08%. For the same compound, the ML-2 %inh in assay [5] is given as 60.99%. In assay [6], the MOLM-13 %inh was 95.78%. In assay [7], this compound yielded an MV4-11 %inh of 92.6%. For the same compound, the U937 %inh in assay [8] is 83.42%.

For the compound `Cn1cc(C2=C(c3ccc(N)cc3)C(=O)NC2=O)c2ccccc21` [SJ000581160-1], the CHRF288-11 %inh in assay [1] was determined as 1.792%. In assay [2], the CMK %inh is 8.525%. Moreover, in assay [3], the CMS %inh was found to be 6.332%. For the same compound, in assay [4], the M07e %inh was found to be 7.926%. Also, the ML-2 %inh in assay [5] amounted to 2.229%. The MOLM-13 %inh in assay [6] amounted to 6.461%. The MV4-11 %inh in assay [7] was 3.731%. The U937 %inh in assay [8] is on record as 1.651%.

Regarding `Cc1ccccc1C1=C(c2cn(C)c3ccccc23)C(=O)NC1=O` [SJ000581162-1], the CHRF288-11 %inh in assay [1] is 8.356%. In addition, in assay [2], the CMK %inh is recorded as 3.937%. Besides, in assay [3], the CMS %inh is listed as 6.978%. Further, the M07e %inh in assay [4] turned out to be 5.581%. In assay [5], the ML-2 %inh is recorded as 3.854%. Also, the MOLM-13 %inh in assay [6] is reported as 0.3788%. Also, in assay [7], the MV4-11 %inh was 6.408%. Moreover, the U937 %inh in assay [8] was 0.403%.

As to `Cn1c(=O)c(-c2ccccc2Cl)cc2cnc(NC3CCOCC3)nc21` [SJ000581163-1], the CHRF288-11 %inh in assay [1] is 6.112%. Further, the CMK %inh in assay [2] was 15.25%. In addition, the CMS %inh in assay [3] was 7.391%. Also, the M07e %inh in assay [4] was 8.813%. The ML-2 %inh in assay [5] was 1.667%. Further, the MOLM-13 %inh in assay [6] was 7.929%. This compound displayed an MV4-11 %inh in assay [7] of 5.265%. Further, in assay [8], the U937 %inh is on record as 4.292%.

In the case of `COc1cc(F)c(F)c(F)c1C(=O)c1cnc(NC2CCN(S(C)(=O)=O)CC2)nc1N` [SJ000581164-1], in assay [1], the CHRF288-11 %inh stood at 47.57%. In assay [2], the CMK %inh was 59.95%. Besides, the CMS %inh in assay [3] is listed as 23.31%. In addition, the M07e %inh in assay [4] is listed as 35.86%. Further, in assay [5], the ML-2 %inh came out at 21.95%. In assay [6], this compound showed an MOLM-13 %inh of 83.36%. Besides, the MV4-11 %inh in assay [7] is 22.69%. Further, the U937 %inh in assay [8] is given as 40.5%.

As to `Cn1cc(C2=C(c3cn(CCCCCN)c4ccccc34)C(=O)NC2=O)c2ccccc21` [SJ000581165-1], the CHRF288-11 %inh in assay [1] came out at 2.441%. Moreover, the CMK %inh in assay [2] is 0.6124%. Further, in assay [3], the CMS %inh is 0.9818%. The M07e %inh in assay [4] came out at 4.895%. In addition, the ML-2 %inh in assay [5] is 1.663%. Further, the MOLM-13 %inh in assay [6] amounted to 2.139%. This compound also displayed an MV4-11 %inh in assay [7] of 1.637%. Further, in assay [8], the U937 %inh is reported as 0.4783%.

With `O=C1OC(=O)C(c2c[nH]c3ccccc23)=C1c1c[nH]c2ccccc12` [SJ000581166-1], the CHRF288-11 %inh in assay [1] was 5.422%. Besides, the CMK %inh in assay [2] turned out to be 0.5161%. Besides, the CMS %inh in assay [3] turned out to be 5.505%. For the same compound, the M07e %inh in assay [4] is listed as -1.376%. Moreover, the ML-2 %inh in assay [5] amounted to 2.957%. For the same compound, in assay [6], the MOLM-13 %inh worked out at 3.376%. In assay [7], this compound yielded an MV4-11 %inh of 1.035%. In addition, the U937 %inh in assay [8] stood at 1.32%.
